Patent US11447489B2, “Dihydropyrimidinylthiazole for the treatment and prophylaxis of hepatitis B virus infection” (priority 2017, dated 2022)

System: HBsAg
Test: HepG2.2.15 cells primary screen assay: HBsAg assay (CLIA of secreted HBsAg)
Format: cell-based, HBV
Conditions: Hepatitis B virus
Experimental: Example 23: HepG2.2.15 Cells Primary Screen Assay
HepG2.2.15 cells (Acs et al. Proc Natl Acad Sci USA, 84, (1987), 4641-4), a constitutively HBV-expressing cell line were cultured in DMEM+Glutamax-I medium (Invitrogen, Carlsbad, Calif., USA), supplemented with 10% fetal bovine serum (Invitrogen) and G418 (Invitrogen) at a final concentration of 200 mg/L and maintained in 5% CO2 at 37° C.
HepG2.2.15 cells were seeded in duplicate into white, 96-well plates at 1.5×10^4 cells/well. The cells were treated with a three-fold serial dilution series of the compounds in DMSO. The final DMSO concentration in all wells was 1% and DMSO was used as no drug control.
The HBsAg chemiluminescence immunoassay (CLIA) kit (Autobio Diagnostics Co., Zhengzhou, China, Catalog number: CL0310-2) was used to measure the levels of secreted HBV antigens semi-quantitatively. For the detection 50 μL/well culture supernatant was used and HBsAg was quantified using HBsAg chemiluminescence immunoassay (CLIA) kit (Autobio Diagnostics Co., Zhengzhou, China, Catalog number: CL0310-2), 50 μL of the supernatant was transferred to the CLIA assay plate and 50 μL of enzyme conjugate reagent was added into each well. The plates were sealed and gently agitated for 1 hour at room temperature. The supernatant-enzyme-mixture was discarded and wells were washed 6 times with 300 μL of PBS. The residual liquid was removed by plating the CLIA plate […] on absorbent tissue paper. 25 μL of substrates A and B were added to each well. Luminance was measured using a luminometer (Mithras LB 940 Multimode Microplate Reader) after 10 minutes incubation. Dose-response curves were generated and the IC50 value was extrapolated by using the E-WorkBook Suite (ID Business Solutions Ltd., Guildford, UK). The IC50 was defined as the compound concentration (or conditioned media log dilution) at which HBsAg secretion was reduced by 50% compared to the no drug control.
The compounds of the present invention were tested for their capacity to inhibit HBsAg as described herein.

| SMILES | IC50 [nM] |
| --- | --- |
| COC(=O)C1=C(CN2CCN(CCCCCCOc3cc4c(cc3OC)-c3cc(=O)c(C(=O)O)cn3C(C(C)(C)C)C4)CC2)NC(c2nccs2)=N[C@H]1c1ccc(F)cc1Cl (stereo partly drawn) [Example 1, 6-tert-butyl-9-[6-[4-[[(4R)-4-(2-chloro-4-fluoro-phenyl)-5-methoxycarbonyl-2-thiazol-2-yl-1,4-dihydropyrimidin-6-yl]methyl]piperazin-1-yl]hexoxy]-10-methoxy-2-oxo-6,7-dihydrobenzo[a]quinolizine-3-carboxylic Acid] | 41 |
| COC(=O)C1=C(CN2CCN3C(=O)N(CC(C)(C)CC(=O)NCCCCCCOc4cc(N5CCc6nc(-c7ncccn7)ncc6C5C)cc(F)c4F)C[C@@H]3C2)NC(c2nccs2)=N[C@H]1c1ccc(F)cc1Cl (stereo partly drawn) [Example 17, methyl (4R)-6-[[(8aS)-2-[4-[6-[2,3-difluoro-5-[5-methyl-2-pyrimidin-2-yl-7,8-dihydro-5H-pyrido[4,3-d]pyrimidin-6-yl]phenoxy]hexylamino]-2,2-dimethyl-4-oxo-butyl]-3-oxo-5,6,8,8a-tetrahydro-1H-imidazo[1,5-a]pyrazin-7-yl]methyl]-4-(2-chloro-4-fluoro-phenyl)-2-thiazol-2-yl-1,4-dihydropyrimidine-5-carboxylate] | 1190 |
| COC(=O)C1=C(CN2CCOC[C@H]2C(=O)NCCCCCCOc2cc(N3CCc4nc(-c5ncccn5)ncc4C3C)cc(F)c2F)NC(c2nccs2)=N[C@H]1c1ccc(F)cc1Cl (stereo partly drawn) [Example 18, methyl (4R)-4-(2-chloro-4-fluoro-phenyl)-6-[[(3S)-3-[6-[2,3-difluoro-5-(5-methyl-2-pyrimidin-2-yl-7,8-dihydro-5H-pyrido[4,3-d]pyrimidin-6-yl)phenoxy]hexylcarbamoyl]morpholin-4-yl]methyl]-2-thiazol-2-yl-1,4-dihydropyrimidine-5-carboxylate] | 912 |
| COC(=O)C1=C(CN2CCN(CCC(CCCOc3cc4c(cc3OC)-c3cc(=O)c(C(=O)O)cn3C(C(C)(C)C)C4)C(=O)O)CC2)NC(c2nccs2)=N[C@H]1c1ccc(F)cc1Cl (stereo partly drawn) [Example 12, 6-tert-butyl-9-[4-carboxy-6-[4-[[(4R)-4-(2-chloro-4-fluoro-phenyl)-5-methoxycarbonyl-2-thiazol-2-yl-1,4-dihydropyrimidin-6-yl]methyl]piperazin-1-yl]hexoxy]-10-methoxy-2-oxo-6,7-dihydrobenzo[a]quinolizine-3-carboxylic Acid] | 740 |
| COC(=O)C1=C(COc2cc(N3CCc4nc(-c5ncccn5)ncc4C3C)cc(F)c2F)NC(c2nccs2)=N[C@H]1c1ccc(F)cc1Cl (stereo partly drawn) [Example 20, methyl (4R)-4-(2-chloro-4-fluoro-phenyl)-6-[[2,3-difluoro-5-(5-methyl-2-pyrimidin-2-yl-7,8-dihydro-5H-pyrido[4,3-d]pyrimidin-6-yl)phenoxy]methyl]-2-thiazol-2-yl-1,4-dihydropyrimidine-5-carboxylate] | 824 |
| CCOC(=O)C1=C(CN2CCN3C(=O)N(CC(C)(C)C(=O)NCCCCCCOc4cc5c(cc4OC)-c4cc(=O)c(C(=O)O)cn4C(C(C)(C)C)C5)C[C@@H]3C2)NC(c2nccs2)=N[C@H]1c1cccc(F)c1Cl (stereo partly drawn) [Example 15, 9-[6-[[3-[(8aS)-7-[[(4R)-4-(2-chloro-3-fluoro-phenyl)-5-ethoxycarbonyl-2-thiazol-2-yl-1,4-dihydropyrimidin-6-yl]methyl]-3-oxo-5,6,8,8a-tetrahydro-1H-imidazo[1,5-a]pyrazin-2-yl]-2,2-dimethyl-propanoyl]amino]hexoxy]-6-tert-butyl-10-methoxy-2-oxo-6,7-dihydrobenzo[a]quinolizine-3-carboxylic Acid] | 41 |
| COC(=O)C1=C(CN2CCN(CCCOc3cc4c(cc3OC)-c3cc(=O)c(C(=O)O)cn3C(C(C)(C)C)C4)CC2)NC(c2nccs2)=N[C@H]1c1ccc(F)cc1Cl (stereo partly drawn) [Example 4, 6-tert-butyl-9-[3-[4-[[(4R)-4-(2-chloro-4-fluoro-phenyl)-5-methoxycarbonyl-2-thiazol-2-yl-1,4-dihydropyrimidin-6-yl]methyl]piperazin-1-yl]propoxy]-10-methoxy-2-oxo-6,7-dihydrobenzo[a]quinolizine-3-carboxylic Acid] | 182 |
| COC(=O)C1=C(CN2CCN(CCCCOc3cc4c(cc3OC)-c3cc(=O)c(C(=O)O)cn3C(C(C)(C)C)C4)CC2)NC(c2nccs2)=N[C@H]1c1ccc(F)cc1Cl (stereo partly drawn) [Example 3, 6-tert-butyl-9-[4-[4-[[(4R)-4-(2-chloro-4-fluoro-phenyl)-5-methoxycarbonyl-2-thiazol-2-yl-1,4-dihydropyrimidin-6-yl]methyl]piperazin-1-yl]butoxy]-10-methoxy-2-oxo-6,7-dihydrobenzo[a]quinolizine-3-carboxylic Acid] | 45 |
| COC(=O)C1=C(CN2CCOC[C@H]2C(=O)NCCOCCOCCOc2cc3c(cc2OC)-c2cc(=O)c(C(=O)O)cn2C(C(C)(C)C)C3)NC(c2nccs2)=N[C@H]1c1ccc(F)cc1Cl (stereo partly drawn) [Example 10, 6-tert-butyl-9-[2-[2-[2-[[(3S)-4-[[(4R)-4-(2-chloro-4-fluoro-phenyl)-5-methoxycarbonyl-2-thiazol-2-yl-1,4-dihydropyrimidin-6-yl]methyl]morpholine-3-carbonyl]amino]ethoxy]ethoxy]ethoxy]-10-methoxy-2-oxo-6,7-dihydrobenzo[a]quinolizine-3-carboxylic Acid] | 569 |
| COC(=O)C1=C(CN2CCN(CC[C@@H](NCCCCCCOc3cc(N4CCc5nc(-c6ncccn6)ncc5C4C)cc(F)c3F)C(=O)O)CC2)NC(c2nccs2)=N[C@H]1c1ccc(F)cc1Cl (stereo partly drawn) [Example 21, (2R)-4-[4-[[(4R)-4-(2-chloro-4-fluoro-phenyl)-5-methoxycarbonyl-2-thiazol-2-yl-1,4-dihydropyrimidin-6-yl]methyl]piperazin-1-yl]-2-[6-[2,3-difluoro-5-(5-methyl-2-pyrimidin-2-yl-7,8-dihydro-5H-pyrido[4,3-d]pyrimidin-6-yl)phenoxy]hexylamino]butanoic Acid] | 582 |
| COC(=O)C1=C(CN2CCOC[C@H]2C(=O)NCCCCCCOc2cc3c(cc2OC)-c2cc(=O)c(C(=O)O)cn2C(C(C)(C)C)C3)NC(c2nccs2)=N[C@H]1c1ccc(F)cc1Cl (stereo partly drawn) [Example 13, 6-tert-butyl-9-[6-[[(3S)-4-[[(4R)-4-(2-chloro-4-fluoro-phenyl)-5-methoxycarbonyl-2-thiazol-2-yl-1,4-dihydropyrimidin-6-yl]methyl]morpholine-3-carbonyl]amino]hexoxy]-10-methoxy-2-oxo-6,7-dihydrobenzo[a]quinolizine-3-carboxylic Acid] | 85 |
| COC(=O)C1=C(CN2CCN(CCOCCOCCOc3cc4c(cc3OC)-c3cc(=O)c(C(=O)O)cn3C(C(C)(C)C)C4)C(C(=O)O)C2)NC(c2nccs2)=N[C@H]1c1ccc(F)cc1Cl (stereo partly drawn) [Example 11, 6-tert-butyl-9-[2-[2-[2-[2-carboxy-4-[[(4R)-4-(2-chloro-4-fluoro-phenyl)-5-methoxycarbonyl-2-thiazol-2-yl-1,4-dihydropyrimidin-6-yl]methyl]piperazin-1-yl]ethoxy]ethoxy]ethoxy]-10-methoxy-2-oxo-6,7-dihydrobenzo[a]quinolizine-3-carboxylic Acid] | 6340 |
| COC(=O)C1=C(CN2CCN(CCCCCCOc3cc4c(cc3OC)-c3cc(=O)c(C(=O)O)cn3C(C(C)(C)C)C4)C(C(=O)O)C2)NC(c2nccs2)=N[C@H]1c1ccc(F)cc1Cl (stereo partly drawn) [Example 7, 6-tert-butyl-9-[6-[2-carboxy-4-[[(4R)-4-(2-chloro-4-fluoro-phenyl)-5-methoxycarbonyl-2-thiazol-2-yl-1,4-dihydropyrimidin-6-yl]methyl]piperazin-1-yl]hexoxy]-10-methoxy-2-oxo-6,7-dihydrobenzo[a]quinolizine-3-carboxylic Acid] | 190 |
| CCOC(=O)C1=C(COCCCCCCOc2cc3c(cc2OC)-c2cc(=O)c(C(=O)O)cn2C(C(C)(C)C)C3)NC(c2nccs2)=NC1c1ccc(F)cc1Cl (stereo not drawn) [Example 14, 6-tert-butyl-9-[6-[[4-(2-chloro-4-fluoro-phenyl)-5-ethoxycarbonyl-2-thiazol-2-yl-1,4-dihydropyrimidin-6-yl]methoxy]hexoxy]-10-methoxy-2-oxo-6,7-dihydrobenzo[a]quinolizine-3-carboxylic Acid] | 96 |
| COC(=O)C1=C(CN2CCOC[C@H]2CN(C)CCCCCCOc2cc(N3CCc4nc(-c5ncccn5)ncc4C3C)cc(F)c2F)NC(c2nccs2)=N[C@H]1c1ccc(F)cc1Cl (stereo partly drawn) [Example 19, methyl (4R)-4-(2-chloro-4-fluoro-phenyl)-6-[[(3R)-3-[[6-[2,3-difluoro-5-(5-methyl-2-pyrimidin-2-yl-7,8-dihydro-5H-pyrido[4,3-d]pyrimidin-6-yl)phenoxy]hexyl-methyl-amino]methyl]morpholin-4-yl]methyl]-2-thiazol-2-yl-1,4-dihydropyrimidine-5-carboxylate] | 724 |
